Like-named read-outs stand apart in the source and are kept apart here.
Key:
[1] = Plasma protein binding; format: in vitro ADME
Source text: Plasma protein binding for Compound 19 was 96.44%.

[2] = system: LN229 glioma cell line; test: PrestoBlue cell viability assay; format: cell-based; conditions: Homo sapiens, LN-229; LN229, 48 hours of treatment
Experimental: (§1) PrestoBlue cell viability reagent (ThermoFisher Scientific; Waltham, MA) was used for cell viability assays. The inhibitory dose-response data were normalized to the control (treatment with vehicle); the inhibitory dose-response curves, which were fitted by using Boltzmann equation, and the corresponding IC50s were generated by using OriginPro software (OriginLab Corporation, CA).
(§2) The glioma suppressive potentials of the new class of HuR multimerization inhibitors were evaluated by utilizing SRI-41664 and SRI-42127 compounds in several cell-based assays. First, it was confirmed that the SRI-41664 and SRI-42127 compounds are cytotoxic for established and PDGx cell lines. FIG. 5A illustrates the inhibitory dose responses of SRI-41664 and SRI-42127 compounds in the established U251, LN229, and the PDGx XD456 glioma cell lines. […] An HuR-overexpression approach was employed to confirm SRI-42127 inhibitory potency against HuR dimerization.

[3] = system: PDGx XD456 glioma cell line; test: PrestoBlue cell viability assay; format: cell-based
Experimental: as §1, §2

[4] = system: U251 glioma cell line; test: PrestoBlue cell viability assay; format: cell-based; conditions: Homo sapiens, U-251, 48 h
Experimental: as §1, §2

[5] = system: X1524 neurospheres, HuR mRNA targets; test: Illumina global RNA-sequencing of PDGx neurospheres; format: cell-based; conditions: 3 uM, 12 hours, compared to control
Experimental: (§3) Illumina global RNA-sequencing data were generated by utilizing PDGx neurospheres, which have been treated with a compound as described herein (e.g., SRI-42127, 3 uM) for 12 hours or with vehicle as the control. RNA was isolated by using TRIzol reagent (Invitrogen; Carlsbad, CA). The RNA samples were processed.
(§4) RNA sequencing was performed on PDGx-derived glioma neurospheres representing the different molecular subtypes (classical, neuronal, and mesenchymal) after treatment with vehicle (control) or SRI-42127 (3 uM) for 12 hours. Analysis of direct HuR mRNA targets and their corresponding cell signaling pathways was performed. Table 9 illustrates the evaluated gene sets, representing direct HuR mRNA targets, and their corresponding cell signaling pathways.
(§5) The analysis of direct HuR mRNA targets and their corresponding cell signaling pathways has been performed by using gene sets, which have been defined as the direct HuR targets following tumor neurosphere treatment with DHTS, an established modulator of HuR/mRNA interaction (Lal et al., Nucleic Acid Research, 2017). […] Data are represented as average+standard deviation (Aver+SD). The significance was evaluated by using Student t-test.
(§6) The analysis was generated based on RNA-Seq data.

[6] = system: XD456 neurospheres, HuR mRNA targets; test: as above; format: cell-based; conditions: 3 uM, 12 hours, compared to control
Experimental: as §3, §4, §5, §6

[7] = system: X14P neurospheres, HuR mRNA targets; test: as above; format: cell-based; conditions: 3 uM, 12 hours, compared to control
Experimental: as §3, §4, §5, §6

CN(c1ccc2ncc(-c3ccc4cn[nH]c4c3)n2n1)C1CCOCC1 [Compound 19]
fraction unbound [1]: 0.0356
IC50 [2]: 3.2 ± 0.6 µM
IC50 ([3]; Glioma cell, XD456, 48 hours of treatment): 4 ± 0.6 µM
increase of IC50 for inhibition of cell viability ([3]; XD456, enhancement of HuR-dimer formation approximately by two-fold, 48 hours): 1.9±0.2 fold
IC50 ([4]; U251, 48 hours of treatment, read-out: IC50 cell viability): 2.8 ± 0.6 µM
IC50 ([4]; U251 with dox-inducible HuR-dimerization reporters, after enhancement of HuR-dimer formation by two fold, 48 hours, read-out: IC50 for inhibition of cell viability): 8 ± 0.8 µM
IC50 ([4]; U251 with dox-inducible HuR-dimerization reporters, before enhancement of HuR-dimer formation, 48 hours, read-out: IC50 for inhibition of cell viability): 2.8 ± 0.4 µM
gene set average value, Activation of BH3-only proteins Homo sapiens_R-HSA-114452 [5]: 0.75
gene set average value, Cell Cycle Check points_Homo Sapiens_R-HSA-69620 [5]: 0.66
gene set average value, Cell Cycle, Mitotic_Homo Sapiens_R-HSA-69278 [5]: 0.67
gene set average value, Cell Cycle_Homo sapiens_R-HSA-1640170 [5]: 0.66
gene set average value, Cell cycle_Homo Sapiens_hsa04110 [5]: 0.75
gene set average value, Cellular Senescence_Homo sapiens_R-HSA-2559583 [5]: 0.76
gene set average value, Cellular responses to Stress_Homo sapiens_R-HSA-2262752 [5]: 0.70
gene set average value, Deadenylation-dependent mRNA decay_Homo sapiens_R-HSA-429914 [5]: 0.84
gene set average value, Developmental Biology_Homo sapiens_R-HSA-1266738 [5]: 0.72
gene set average value, Epstein-Barr virus Infection_Homo Sapiens_hsa05169 [5]: 0.79
gene set average value, G2/M Check points_Homo sapiens_R-HSA-69481 [5]: 0.66
gene set average value, G2/M DNA damage Checkpoint_Homo sapiens_R-HSA-69473 [5]: 0.67
gene set average value, Gene Expression_Homo Sapiens_R-HSA-2559583 [5]: 0.87
gene set average value, HTLV-1 infection_Homo Sapiens_hsa05186 [5]: 0.88
gene set average value, Intrinsic Pathway for Apoptosis_Homo sapiens_R-HSA-109606 [5]: 0.75
gene set average value, MAPK signaling Pathway_Homo Sapiens_hsa04010 [5]: 0.76
gene set average value, Membrane Trafficking_Homo sapiens_R-HAS-199991 [5]: 0.61
gene set average value, Mitotic G1-G1/S phases_Homo sapiens_R-HSA-453279 [5]: 0.63
gene set average value, P53 signaling pathway_Homo Sapiens_hsa04115 [5]: 1.07
gene set average value, RHO GTPases Activate Formins_Homo sapiens_R-HSA-5663220 [5]: 0.65
gene set average value, RHO GTPases Effectors_Homo sapiens_R-HSA-195258 [5]: 0.69
gene set average value, RNA degradation_Homo Sapiens_hsa03018 [5]: 0.94
gene set average value, Regulation of TP53 Activity through Phosphorylation_Homo sapiens_R-HSA-6804756 [5]: 0.64
gene set average value, Regulation of TP53 Activity_Homo sapiens_R-HSA-109606 [5]: 0.77
gene set average value, Signaling by Rho GTPases_Homo sapiens_R-HSA-194315 [5]: 0.72
gene set average value, TP53 Regulates Metabolic Genes_Homo sapiens_R-HSA-5628897 [5]: 0.78
gene set average value, Transcriptional Regulation by TP53_Homo sapiens_R-HSA-3700989 [5]: 0.81
gene set average value, Translocation of GLUT4 to the plasma membrane_Homo sapiens_R-HSA-1445148 [5]: 0.69
gene set average value, Activation of BH3-only proteins Homo sapiens_R-HSA-114452 [6]: 0.94
gene set average value, Cell Cycle Check points_Homo Sapiens_R-HSA-69620 [6]: 0.48
gene set average value, Cell Cycle, Mitotic_Homo Sapiens_R-HSA-69278 [6]: 0.54
gene set average value, Cell Cycle_Homo sapiens_R-HSA-1640170 [6]: 0.52
gene set average value, Cell cycle_Homo Sapiens_hsa04110 [6]: 0.60
gene set average value, Cellular Senescence_Homo sapiens_R-HSA-2559583 [6]: 0.64
gene set average value, Cellular responses to Stress_Homo sapiens_R-HSA-2262752 [6]: 0.53
gene set average value, Deadenylation-dependent mRNA decay_Homo sapiens_R-HSA-429914 [6]: 0.58
gene set average value, Developmental Biology_Homo sapiens_R-HSA-1266738 [6]: 0.49
gene set average value, Epstein-Barr virus Infection_Homo Sapiens_hsa05169 [6]: 0.49
gene set average value, G2/M Check points_Homo sapiens_R-HSA-69481 [6]: 0.47
gene set average value, G2/M DNA damage Checkpoint_Homo sapiens_R-HSA-69473 [6]: 0.50
gene set average value, Gene Expression_Homo Sapiens_R-HSA-2559583 [6]: 0.63
gene set average value, HTLV-1 infection_Homo Sapiens_hsa05186 [6]: 0.61
gene set average value, Intrinsic Pathway for Apoptosis_Homo sapiens_R-HSA-109606 [6]: 0.94
gene set average value, MAPK signaling Pathway_Homo Sapiens_hsa04010 [6]: 0.54
gene set average value, Membrane Trafficking_Homo sapiens_R-HAS-199991 [6]: 0.53
gene set average value, Mitotic G1-G1/S phases_Homo sapiens_R-HSA-453279 [6]: 0.61
gene set average value, P53 signaling pathway_Homo Sapiens_hsa04115 [6]: 1.19
gene set average value, RHO GTPases Activate Formins_Homo sapiens_R-HSA-5663220 [6]: 0.48
gene set average value, RHO GTPases Effectors_Homo sapiens_R-HSA-195258 [6]: 0.50
gene set average value, RNA degradation_Homo Sapiens_hsa03018 [6]: 0.65
gene set average value, Regulation of TP53 Activity through Phosphorylation_Homo sapiens_R-HSA-6804756 [6]: 0.35
gene set average value, Regulation of TP53 Activity_Homo sapiens_ [6]: 0.44
gene set average value, Signaling by Rho GTPases_Homo sapiens_R-HSA-194315 [6]: 0.45
gene set average value, TP53 Regulates Metabolic Genes_Homo sapiens_R-HSA-5628897 [6]: 0.54
gene set average value, Transcriptional Regulation by TP53_Homo sapiens_R-HSA-3700989 [6]: 0.64
gene set average value, Translocation of GLUT4 to the plasma membrane_Homo sapiens_R-HSA-1445148 [6]: 0.53
gene set average value, Activation of BH3-only proteins Homo sapiens_R-HSA-114452 [7]: 1.03
gene set average value, Cell Cycle Check points_Homo Sapiens_R-HSA-69620 [7]: 0.77
gene set average value, Cell Cycle, Mitotic_Homo Sapiens_R-HSA-69278 [7]: 0.80
gene set average value, Cell Cycle_Homo sapiens_R-HSA-1640170 [7]: 0.74
gene set average value, Cell cycle_Homo Sapiens_hsa04110 [7]: 0.99
gene set average value, Cellular Senescence_Homo sapiens_R-HSA-2559583 [7]: 0.99
gene set average value, Cellular responses to Stress_Homo sapiens_R-HSA-2262752 [7]: 0.74
gene set average value, Deadenylation-dependent mRNA decay_Homo sapiens_R-HSA-429914 [7]: 1.03
gene set average value, Developmental Biology_Homo sapiens_R-HSA-1266738 [7]: 0.65
gene set average value, Epstein-Barr virus Infection_Homo Sapiens_hsa05169 [7]: 1.0
gene set average value, G2/M Check points_Homo sapiens_R-HSA-69481 [7]: 0.82
gene set average value, G2/M DNA damage Checkpoint_Homo sapiens_R-HSA-69473 [7]: 0.82
gene set average value, Gene Expression_Homo Sapiens_R-HSA-2559583 [7]: 0.95
gene set average value, HTLV-1 infection_Homo Sapiens_hsa05186 [7]: 0.89
gene set average value, Intrinsic Pathway for Apoptosis_Homo sapiens_R-HSA-109606 [7]: 1.03
gene set average value, MAPK signaling Pathway_Homo Sapiens_hsa04010 [7]: 1.0
gene set average value, Membrane Trafficking_Homo sapiens_R-HAS-199991 [7]: 0.86
gene set average value, Mitotic G1-G1/S phases_Homo sapiens_R-HSA-453279 [7]: 1.00
gene set average value, P53 signaling pathway_Homo Sapiens_hsa04115 [7]: 1.9
gene set average value, RHO GTPases Activate Formins_Homo sapiens_R-HSA-5663220 [7]: 0.62
gene set average value, RHO GTPases Effectors_Homo sapiens_R-HSA-195258 [7]: 0.70
gene set average value, RNA degradation_Homo Sapiens_hsa03018 [7]: 1.97
gene set average value, Regulation of TP53 Activity through Phosphorylation_Homo sapiens_R-HSA-6804756 [7]: 0.58
gene set average value, Regulation of TP53 Activity_Homo sapiens_R-HSA-109606 [7]: 0.94
gene set average value, Signaling by Rho GTPases_Homo sapiens_R-HSA-194315 [7]: 0.65
gene set average value, TP53 Regulates Metabolic Genes_Homo sapiens_R-HSA-5628897 [7]: 1.03
gene set average value, Transcriptional Regulation by TP53_Homo sapiens_R-HSA-3700989 [7]: 1.04
gene set average value, Translocation of GLUT4 to the plasma membrane_Homo sapiens_R-HSA-1445148 [7]: 0.92

— patent US12435091B2, “RNA-binding protein multimerization inhibitors and methods of use thereof” (THE UAB RESEARCH FOUNDATION, priority 2020, dated 2025)
